Values quoted from earlier work, collected in paper PMC9851200, “Multiparameter phenotypic screening for endogenous TFEB and TFE3 translocation identifies novel chemical series modulating lysosome function” (Autophagy, 2022).

Experiments:
Design in all cases: method as in original PKIS2 published data
[1] = target: T1, kinases (KINOMEscan panel) (Homo sapiens, UniProt Q16566); details: CAMK4; Published KINOMEscan; ref original PKIS2 published data; cited from earlier work
T1 sequence (Q16566 1-473): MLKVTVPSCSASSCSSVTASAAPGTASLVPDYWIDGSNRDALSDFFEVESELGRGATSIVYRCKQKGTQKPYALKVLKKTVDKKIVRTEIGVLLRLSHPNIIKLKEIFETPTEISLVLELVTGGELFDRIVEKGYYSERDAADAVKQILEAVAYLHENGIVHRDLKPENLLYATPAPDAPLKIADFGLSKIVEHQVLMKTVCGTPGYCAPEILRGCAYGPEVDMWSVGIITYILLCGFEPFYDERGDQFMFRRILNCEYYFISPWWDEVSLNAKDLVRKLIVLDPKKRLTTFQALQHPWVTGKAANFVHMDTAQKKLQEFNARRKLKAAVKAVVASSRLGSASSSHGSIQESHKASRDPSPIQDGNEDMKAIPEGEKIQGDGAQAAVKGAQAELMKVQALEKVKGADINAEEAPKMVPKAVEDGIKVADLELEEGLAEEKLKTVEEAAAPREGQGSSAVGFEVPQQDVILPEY

[2] = target: T2, kinases (KINOMEscan panel) (Homo sapiens, UniProt Q6XUX3); details: DSTYK; Published KINOMEscan; ref original PKIS2 published data; cited from earlier work
T2 sequence (Q6XUX3 1-929): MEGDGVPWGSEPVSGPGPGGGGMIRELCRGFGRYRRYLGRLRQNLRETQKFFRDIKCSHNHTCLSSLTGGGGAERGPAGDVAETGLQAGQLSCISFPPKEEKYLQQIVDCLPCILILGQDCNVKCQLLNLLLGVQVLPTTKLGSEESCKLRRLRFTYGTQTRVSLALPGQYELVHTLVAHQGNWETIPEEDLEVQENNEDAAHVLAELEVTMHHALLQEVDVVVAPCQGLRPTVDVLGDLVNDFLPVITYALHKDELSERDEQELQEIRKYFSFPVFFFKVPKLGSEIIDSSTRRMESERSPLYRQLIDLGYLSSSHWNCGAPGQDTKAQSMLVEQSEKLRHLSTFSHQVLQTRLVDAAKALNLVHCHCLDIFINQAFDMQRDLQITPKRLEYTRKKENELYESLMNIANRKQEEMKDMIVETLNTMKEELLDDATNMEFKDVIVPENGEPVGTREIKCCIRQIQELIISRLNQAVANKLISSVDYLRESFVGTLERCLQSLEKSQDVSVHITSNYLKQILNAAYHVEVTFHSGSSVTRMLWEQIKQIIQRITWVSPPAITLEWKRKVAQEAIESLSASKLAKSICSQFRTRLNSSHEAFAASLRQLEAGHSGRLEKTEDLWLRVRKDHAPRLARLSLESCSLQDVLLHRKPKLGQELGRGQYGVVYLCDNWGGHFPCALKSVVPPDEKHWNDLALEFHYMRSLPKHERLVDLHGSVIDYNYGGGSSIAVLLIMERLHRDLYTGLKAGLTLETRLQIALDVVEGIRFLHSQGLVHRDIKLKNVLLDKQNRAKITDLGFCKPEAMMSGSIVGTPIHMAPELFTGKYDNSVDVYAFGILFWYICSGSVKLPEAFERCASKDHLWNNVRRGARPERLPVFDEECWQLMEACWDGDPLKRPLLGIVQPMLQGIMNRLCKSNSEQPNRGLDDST

[3] = target: T3, kinases (KINOMEscan panel) (Homo sapiens, UniProt Q9UHD2); details: TBK1; Published KINOMEscan; ref original PKIS2 published data; cited from earlier work
T3 sequence (Q9UHD2 1-729): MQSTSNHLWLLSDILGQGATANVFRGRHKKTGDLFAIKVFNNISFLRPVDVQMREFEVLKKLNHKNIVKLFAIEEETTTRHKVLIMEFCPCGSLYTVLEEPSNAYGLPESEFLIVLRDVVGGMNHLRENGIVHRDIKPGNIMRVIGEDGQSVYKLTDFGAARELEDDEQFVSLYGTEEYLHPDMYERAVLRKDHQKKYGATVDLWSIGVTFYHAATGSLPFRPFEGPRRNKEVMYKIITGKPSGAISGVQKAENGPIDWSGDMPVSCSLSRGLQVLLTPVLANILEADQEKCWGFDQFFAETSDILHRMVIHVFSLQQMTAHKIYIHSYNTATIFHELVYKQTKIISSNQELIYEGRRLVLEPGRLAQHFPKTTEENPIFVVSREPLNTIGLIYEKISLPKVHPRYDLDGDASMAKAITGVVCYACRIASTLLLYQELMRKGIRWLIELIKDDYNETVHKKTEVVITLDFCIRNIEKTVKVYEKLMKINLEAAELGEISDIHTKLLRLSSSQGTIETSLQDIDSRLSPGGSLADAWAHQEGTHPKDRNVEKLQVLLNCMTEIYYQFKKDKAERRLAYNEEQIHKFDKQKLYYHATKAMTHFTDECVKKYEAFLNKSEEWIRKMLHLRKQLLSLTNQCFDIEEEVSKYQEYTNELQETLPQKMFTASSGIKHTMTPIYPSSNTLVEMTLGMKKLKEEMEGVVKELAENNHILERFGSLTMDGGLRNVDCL

For `Cc1cccc(-c2nc(Nc3ccncc3)c3ccccc3n2)n1` [NK215], the “KINOMEscan CAMK4” value [1] is given as 47, the “KINOMEscan DSTYK” value [2] is given as 0 and the “KINOMEscan TBK1” value [3] is given as 41.
